Results from PubChem BioAssay (NCI).
Several values for one entry are separate records, joined by “and”; a condition that tells them apart may be missing. Equal entries are not always repeated.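 Following 48 hours of exposure in 96-well plates, responses at five concentrations were used to interpolate endpoints linearly. The concentration for 50% growth inhibition is given as GI50. At the TGI there is no net growth.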

How the values were obtained:
Assay in all cases: growth of human tumour cells (NCI), 48 h
[1] = test system: SK-OV-3 ovarian
[2] = test system: EKVX NSCLC
[3] = test system: SNB-75 CNS
[4] = test system: NCI-H460 lung
[5] = test system: SF-268 CNS
[6] = test system: ACHN renal
[7] = test system: CAKI-1 renal
[8] = test system: RPMI-8226 leukemia
[9] = test system: SNB-19 CNS
[10] = test system: HCT-15 colon

For `CC(C)(C)OC(=O)NCCCCCCCCCCn1c2c(c3ccccc3c1=O)C(=O)c1ccccc1-2`, the GI50 [1] was 40.3 µM, the TGI [1] was > 100 µM and the GI50 [2] was > 100 µM. The TGI [2] was > 100 µM, the GI50 [3] was 5.92 µM and the TGI [3] was 28.6 µM. The GI50 [4] was > 100 µM, the TGI [4] was > 100 µM and the GI50 [5] was 21.9 µM. The TGI [5] was > 100 µM, the GI50 [6] was 18.5 µM and the TGI [6] was 66 µM. For the same compound, the GI50 [7] was 27.9 µM, the TGI [7] was > 100 µM and the GI50 [8] was 79.7 µM. The TGI [8] was > 100 µM, the GI50 [9] was 44.1 µM and the TGI [9] was > 100 µM. For the same compound, the GI50 [10] was > 100 µM and the TGI [10] was > 100 µM.
For `CC12CCC(O)CC1=CCC1C2CCC2(C)C(c3cccnc3)=CCC12` (stereo not given), the GI50 [1] was > 100 µM, the TGI [1] was > 100 µM and the GI50 [2] was > 100 µM. For the same compound, the TGI [2] was > 100 µM, the GI50 [3] was 48.5 µM and the TGI [3] was > 100 µM. For the same compound, the GI50 [4] was > 100 µM, the TGI [4] was > 100 µM and the GI50 [5] was 95.2 µM. For the same compound, the TGI [5] was > 100 µM, the GI50 [6] was > 100 µM and the TGI [6] was > 100 µM. The GI50 [7] was > 100 µM, the TGI [7] was > 100 µM and the GI50 [8] was 39.1 µM. For the same compound, the TGI [8] was > 100 µM, the GI50 [9] was > 100 µM and the TGI [9] was > 100 µM. For the same compound, the GI50 [10] was > 100 µM and the TGI [10] was > 100 µM.
With `CN(C)CCOc1ccc(-c2cc(-c3ccc4c(c3)CC/C4=N\O)c(-c3ccncc3)o2)cc1` the GI50 [1] was 4.08 µM, the TGI [1] was 7.51 µM and the GI50 [2] was 3.93 µM. The TGI [2] was 8.07 µM, the GI50 [3] was 1.27 µM and the TGI [3] was 6 µM. The GI50 [4] was 1.1 µM, the TGI [4] was 3.95 µM and the GI50 [5] was 4.72 µM. For the same compound, the TGI [5] was 9.94 µM, the GI50 [6] was 3.62 µM and the TGI [6] was 6.98 µM. For the same compound, the GI50 [7] was 4.19 µM, the TGI [7] was 8.71 µM and the GI50 [8] was 4.28 µM. It also gave a TGI [8] of 10.7 µM, a GI50 [9] of 4.68 µM and a TGI [9] of 8.6 µM. The GI50 [10] was 3.35 µM and the TGI [10] was 7.09 µM.
For `COC[C@@H](N=CN1CCc2cc(OC)c(OC)cc2C1)C(C)(C)C`, the TGI [1] was > 100 µM, the TGI [2] was > 100 µM and the TGI [3] was > 100 µM. The TGI [4] was > 100 µM, the TGI [5] was > 100 µM and the TGI [6] was > 100 µM. For the same compound, the TGI [7] was > 100 µM, the TGI [8] was > 100 µM and the TGI [9] was > 100 µM. For the same compound, the TGI [10] was > 100 µM.
For `COc1cc2c(cc1O)C(c1cc(O)c(O)c(OC)c1)C(O)(C(=O)O)C(CO)C2O` (stereo not given), the TGI [1] was > 100 µM, the TGI [2] was 36.9 µM and the TGI [3] was > 100 µM. For the same compound, the TGI [4] was > 100 µM, the TGI [5] was > 100 µM and the TGI [6] was > 100 µM. The TGI [7] was > 100 µM, the TGI [8] was > 100 µM and the TGI [9] was > 100 µM. The TGI [10] was > 100 µM.
`CCOC(=O)c1nc2cc(C(F)(F)F)ccc2[n+]([O-])c1C` was tested, and the GI50 [1] was > 100 µM, the TGI [1] was > 100 µM and the GI50 [2] was > 100 µM. The TGI [2] was > 100 µM, the GI50 [3] was > 100 µM and the TGI [3] was > 100 µM. The GI50 [4] was > 100 µM, the TGI [4] was > 100 µM and the GI50 [5] was > 100 µM. The TGI [5] was > 100 µM, the GI50 [6] was > 100 µM and the TGI [6] was > 100 µM. For the same compound, the GI50 [7] was > 100 µM, the TGI [7] was > 100 µM and the GI50 [8] was > 100 µM. The TGI [8] was > 100 µM, the GI50 [9] was > 100 µM and the TGI [9] was > 100 µM. For the same compound, the GI50 [10] was > 100 µM and the TGI [10] was > 100 µM.
Compound `O=Nc1c(O)c2ccccc2c2ccccc12` has a GI50 [1] of 2.48 µM, a TGI [1] of 6.27 µM and a GI50 [2] of 1.7 µM. The TGI [2] was 3.32 µM, the GI50 [3] was 1.51 µM and the TGI [3] was 2.92 µM. It also gave a GI50 [4] of 1.06 µM, a TGI [4] of 2.49 µM and a GI50 [5] of 1.43 µM. For the same compound, the TGI [5] was 3.75 µM, the GI50 [6] was 1.02 µM and the TGI [6] was 7.1 µM. It also gave a GI50 [7] of 2.95 µM, a TGI [7] of 9 µM and a GI50 [8] of 1.2 µM. The TGI [8] was > 21.9 µM, the GI50 [9] was 1.13 µM and the TGI [9] was 2.55 µM. The GI50 [10] was 0.398 µM and the TGI [10] was 2.4 µM.
In the case of `COc1ccc(/C(=N/O)c2cc(OC)c(OC)c(OC)c2)c(OC)c1N`, the GI50 [1] is reported as 8.51 µM, the TGI [1] is reported as > 100 µM and the GI50 [2] is reported as 6.64 µM. For the same compound, the TGI [2] was > 100 µM, the GI50 [3] was 2.21 µM and the TGI [3] was > 100 µM. The GI50 [4] was 3.92 µM, the TGI [4] was > 100 µM and the GI50 [5] was 14.6 µM. The TGI [5] was > 100 µM, the GI50 [6] was 17.8 µM and the TGI [6] was > 100 µM. The GI50 [7] was 5.53 µM, the TGI [7] was > 100 µM and the GI50 [8] was 5.35 µM. For the same compound, the TGI [8] was > 100 µM, the GI50 [9] was 5.32 µM and the TGI [9] was > 100 µM. For the same compound, the GI50 [10] was 3.87 µM and the TGI [10] was > 100 µM.
`Cc1cc(O)cc(C)c1/C=C/c1cncc(C(=O)OC(C)(C)C)c1` was tested, and the GI50 [1] was 16.1 µM, the TGI [1] was > 25 µM and the GI50 [2] was 12.6 µM. For the same compound, the TGI [2] was > 25 µM, the GI50 [3] was 4.75 µM and the TGI [3] was > 23.9 µM. For the same compound, the GI50 [4] was 13.5 µM, the TGI [4] was > 25 µM and the GI50 [5] was 20.7 µM. For the same compound, the TGI [5] was > 25 µM, the GI50 [6] was 12.7 µM and the TGI [6] was > 25 µM. The GI50 [7] was 12.3 µM, the TGI [7] was > 25 µM and the GI50 [8] was > 22.4 µM. The TGI [8] was > 25 µM, the GI50 [9] was > 25 µM and the TGI [9] was > 25 µM. For the same compound, the GI50 [10] was 11.5 µM and the TGI [10] was > 25 µM.
With `Cc1cc(NS(=O)(=O)c2ccc(NC(=O)COC(=O)c3cccc4c(=O)c5ccccc5[nH]c34)cc2)no1` the TGI [1] was > 100 µM, the TGI [2] was > 100 µM and the TGI [3] was > 100 µM. For the same compound, the TGI [4] was > 100 µM, the TGI [5] was > 100 µM and the TGI [6] was > 100 µM. The TGI [7] was > 100 µM, the TGI [8] was > 100 µM and the TGI [9] was > 100 µM. For the same compound, the TGI [10] was > 100 µM.
For `O=C(c1ccccc1O)c1[nH]c(Cl)c(Cl)c1-n1c(C(=O)c2ccccc2O)cc(Cl)c1Cl`, the GI50 [1] was 1.86 µM and 2.31 µM, the TGI [1] was 7.11 µM and 13.1 µM and the GI50 [2] was 0.549 µM. For the same compound, the TGI [2] was 10 µM, the GI50 [3] was 1.8 µM and 1.58 µM and the TGI [3] was 10.3 µM and 8.76 µM. The GI50 [4] was 0.456 µM and 0.427 µM, the TGI [4] was 11.2 µM and 10.2 µM and the GI50 [5] was 0.677 µM and 0.546 µM. For the same compound, the TGI [5] was 13.4 µM and 14.6 µM, the GI50 [6] was 1.54 µM and 0.591 µM and the TGI [6] was 9.41 µM and 9.11 µM. For the same compound, the GI50 [7] was 0.425 µM and 0.385 µM, the TGI [7] was 10.6 µM and 3.1 µM and the GI50 [8] was 0.366 µM and 0.265 µM. The TGI [8] was 4.21 µM and 1.57 µM, the GI50 [9] was 1.49 µM and 0.917 µM and the TGI [9] was 15.4 µM and 15.6 µM. The GI50 [10] was 0.316 µM and 0.298 µM and the TGI [10] was 12.1 µM and 11.1 µM.
In the case of `CCc1ncnc2cc(OCC3CO3)c(OC)cc12` (stereo not given), the TGI [1] is reported as 73.6 µM, the TGI [2] is reported as > 100 µM and the TGI [3] is reported as 53.7 µM. The TGI [4] was 43.8 µM, the TGI [5] was > 100 µM and the TGI [6] was 21.6 µM. For the same compound, the TGI [7] was > 100 µM, the TGI [8] was 5.38 µM and the TGI [9] was > 100 µM. The TGI [10] was 34.9 µM.
In the case of `C#C/C=C/CC1OC(C(Br)CC)CC(Br)C2CC1O2` (stereo not given), the TGI [1] is reported as > 100 µM, the TGI [2] is reported as > 100 µM and the TGI [3] is reported as > 100 µM. For the same compound, the TGI [4] was > 100 µM, the TGI [5] was > 100 µM and the TGI [6] was > 100 µM. For the same compound, the TGI [7] was > 100 µM, the TGI [8] was > 100 µM and the TGI [9] was > 100 µM. The TGI [10] was > 100 µM.
`CC(=O)c1ccc2c(c1)N(CCCN(C)C)c1ccccc1S2` gave a GI50 [1] of 13.1 µM, a TGI [1] of 26.3 µM and a GI50 [2] of 13.1 µM. It also gave a TGI [2] of 30.9 µM, a GI50 [3] of 1.99 µM and a TGI [3] of 16.4 µM. The GI50 [4] was 18 µM, the TGI [4] was 33.8 µM and the GI50 [5] was 13.5 µM. It also gave a TGI [5] of 29.6 µM, a GI50 [6] of 15.5 µM and a TGI [6] of 30.6 µM. The GI50 [7] was 12.6 µM, the TGI [7] was 26.4 µM and the GI50 [8] was 18 µM. The TGI [8] was 43.3 µM, the GI50 [9] was 18.6 µM and the TGI [9] was 43.2 µM. For the same compound, the GI50 [10] was 16 µM and the TGI [10] was 31.2 µM.
`NCCN1C(=O)c2ccccc2C1(O)c1ccc(Cl)cc1` (stereo not given) gave a TGI [1] of 81.1 µM, a TGI [2] of 52.3 µM and a TGI [3] of 97.6 µM. For the same compound, the TGI [4] was 30.4 µM, the TGI [5] was 57.1 µM and the TGI [6] was 59.3 µM. For the same compound, the TGI [7] was > 100 µM, the TGI [8] was 39.7 µM and the TGI [9] was 61 µM. For the same compound, the TGI [10] was > 100 µM.
